Experimental data as given in patent US6867179B1, “Methods of inducing hair growth and coloration” (Trustees of Boston University, priority 1994, dated 2005).
No end group written: not given here.

Key:
Bax = Bax level in beta-amyloid treated melanocytes (Western blot); type: cell-based, human
Method: To investigate the mechanism of -amyloid-mediated melanocyte death, Bax levels in melanocytes treated with 25 uM of 1-40 or 25-35-amyloid peptides was examined. Within 4 days of treatment, Bax was induced 3 fold in melanocytes stimulated either with the beta-amyloid 1-40 or 25-35 fragments as compared to melanocytes treated with the 40-1 control fragment or an irrelevant HPLC purified protein of similar size.
Melanocytes were maintained as above. Four days after addition of 25 microM of beta-amyloid fragments 1-40 40-1 or 25-35; or 25 microM of HPLC-purified bovine corticotropin releasing factor (CRF) (Bachem Calif.) (MW 4.7 kD) as an additional negative control, cells were extracted in RIPA buffer (50 mM Tris-HCl [pH 8.0], 0.15 M NaCl, 0.5% sodium deoxycholate, 1% Triton X-100) in the presence of 1 microg/ml aprotinin and 75 microg/ml phenylmethylsulfonyl fluoride (PMSF), sonicated for 1-3 seconds and centrifuged. 40 microg of protein per lane were separated on 12% SDS/PAGE and blotted onto nitrocellulose paper (overnight, 25C). To verify equal loading a duplicate 13% SDS/PAGE was performed and stained with Coomasie Blue R250 stain. […] Bound antibodies were detected using enhanced chemiluminescence kit (Amersham Corp.). […]

human p75 = test: p75 apoptotic signaling in 3T3-p75 cells (aggregation, c-jun, JNK, caspase-3, DNA fragmentation); type: cell-based; conditions: peptide pretreatment, then βA
Method: To investigate p75 early signaling, NIH-3T3 cells engineered to constitutively express human p75 (3T3-p75), were stimulated with a known p75 ligand β amyloid (βA), and the distribution of p75 on the cell surface was analysed using immunohistochemistry and confocal laser microscopy. […] (FIG. 13)
To determine if the initial step of p75 aggregation is required for initiation of apoptosis, 3T3-p75 were pretreated with an HPLC purified cyclic peptide (CATDIKGAEC) (SEQ ID NO:9) that binds the ligand binding site of p75, and then cultures were stimulated with βA or with diluent alone.

p75^NTR-NIH 3T3 cells = test: Effect of KGA-containing peptides on survival of beta-amyloid treated p75NTR-NIH 3T3 cells; type: cell-based; conditions: 250 nM peptide, 250 nM preaggregated beta-amyloid 1-40, 72 hours
Method: p75^NTR-NIH 3T3 cells were maintained in DME supplemented with 10% calf serum until 80% confluent. The cells were washed and incubated in serum free DME containing transferrin (5 microg/ml) and insulin (5 microg/ml). Triplicate dishes were supplemented with diluent or preaggregated beta-amyloid 1-40 (250 nM) as […]. […] After 72 hours, cells were rinsed in PBS and cultures were incubated in 0.25% trypsin at 37° C. Cell yields were determine using a particle counter.

p75 = p75 signal transduction in melanocytes (JNK activation, intracellular ceramide); type: cell-based, human
Method: To investigate p75 signal transduction, it was first determined by RT-PCR that trkA and trkC are not expressed in MC maintained in choleragen/TPA-free medium. MC were incubated with 10 ng/ml nerve growth factor (NGF) or neurotrophin-3 (NT-3) for 30 minutes and c-Jun amino terminal kinase (JNK) activation was determined. […] Furthermore, within 3 hours p75 activation by NGF, but not by NT-3, lead to a 2-fold increase of intracellular ceramide. As before, ceramide increase was abrogated by pre-incubation with the cyclic peptide. Because in cell lines, UV irradiation directly activates cell surface receptors such as Fas and the TNFα receptor, sham- or UV-irradiated MC were used to determine p75 activation.

BCL-2 = BCL-2 antisense oligonucleotides in UV-irradiated MM4 cells with or without NGF; type: cell-based, human
Text: Purified phosphorothioate oligonucleotides were purchased from Quality Controlled Biochemicals, Inc. (Hopkinton, Mass.). 19 mer oligonucleotides were designed based on the published human BCL-2 sequence (Tsujimoto, Y. and Croce, C. M., Proc. Natl. Acad. Sci. USA, 83:5214-5218 (1986)). The sequence chosen was directed against the […] of the coding region starting 4 bases before the methionine initiation site. Nonsense oligonucleotides were used as control. Sequences used (all written 5′ to 3′): Antisense CCCAGCGTGCGCCATCCTT (SEQ ID NO: 7); Nonsense CTCCCACTCGTCATTCGAC (SEQ ID NO: 8).
MM4 cells were maintained in 60 mm diameter tissue culture dishes in 55.3% DME, 27.6% L15, 15% FBS, 1% nonessential amino acids (GIBCO BRL), 2 mM glutamine and 10 µg/ml insulin. Near confluent cells were UV irradiated with 10 mJ/cm^2. Immediately after irradiation cells were incubated with 10 uM antisense or nonsense BCL-2 oligonucleotides in suspension at […] for 30 minutes. Then cells were plated in tissue culture dishes in the presence or absence of NGF (50 ng/ml). Cells were supplemented with fresh oligonucleotides every 12 hours. Cell yield and BCL-2 level were determined 48 hours after irradiation. Cell yield was determined by counting cells in at least three representative field per each condition.

p75 NGF-R = p75 NGF-R antisense oligonucleotides in UV-irradiated, NGF-supplemented melanocytes; type: cell-based, human; conditions: UV 20 mJ/cm^2, 10 uM oligonucleotide, 48 hours
Method: The following sequences were used: Antisense 5' to 3' […] NO: 5); Nonsense 5' to 3° […] NO: 6) (negative control). […] Near confluent cells were irradiated using a 1 KW xenon arc solar simulator (XMN 1000-21, Optical Radiation Corp., Azuza, Calif.) with 20 mJ/cm^2 UV through the petri dish plastic cover. Irradiance was adjusted to 4×10^-5 UV cm^-2 and metered with a research 20 radiometer (model I[…], International Light, Newburyport, Mass.) fitted with a UVB probe at 285 Å 5 nm. […] After the initial 30 minute incubation cells were plated in 35 mm dishes in basal melanocyte medium without serum. Cells were supplemented with fresh oligonucleotides every 12 hours for 48 hours. Cells were visualized by phase contrast microscopy and pictures of representative fields were obtained. Cell yields were determined by counting cells in several representative fields.

MM4 cells = test: MM4 cell yields after UV or sham irradiation with growth factor supplementation; type: cell-based, human
Method: Melanocytes or MM4 cells were plated in 60 mm diameter tissue culture dishes. Melanocytes were maintained in Medium 199 supplemented with 7% fetal bovine serum (FBS), 10 ng/ml epidermal growth factor (Collaborative Research), […] (Sigma), […] (Collaborative Research), […] (Sigma), 1.4×10^−6 M hydrocortisone (Calbiochem), […] (Calbiochem), and 10 ng/ml basic fibroblast growth factor (Collaborative Research) (basal melanocyte medium). MM4 cells were maintained in 55.3% DME, 27.6% L15, 15% FBS, 1% nonessential amino acids (GIBCO BRL), 2 mM glutamine and 10 µg/ml insulin. After 24 hours, medium was replaced by phosphate buffered saline (PBS) and cells were irradiated using a 1 KW xenon arc solar simulator (XMN 1000-21, Optical Radiation Corp., Azuza, Calif.) with 5, 10, or 25 mJ/cm^2 UV through the petri dish plastic cover. Irradiance was adjusted to 4×10^−5 UV cm^−2 and metered with a research radiometer (model IL1700A, International Light, Newburyport, Mass.) fitted with a UVB probe at 285 Å 5 nm. After UV irradiation, cells were maintained in their respective media without FBS for 2 days (MM4 cells) or 3 days (melanocytes) and processed as indicated. Sham irradiated control cultures were handled identically but laced under a dark cloth adjacent to the UV beam.
FIGS. 2B and 2D show MM4 cell yields 24-72 hours after a single UV irradiation of 10 mJ/cm^2. FIGS. 2C and 2e show MM4 cell yields 24-72 hours after sham irradiation. Cells in FIGS. 2B and 2C were supplemented with 50 ng/ml NGF or diluent alone. Cells in FIGS. 2D and 2E were supplemented with 50 ng/ml bFGF or diluent alone.
Melanocytes or MM4 cells were plated as described in Example 1. After irradiation, melanocytes were maintained in basal melanocyte medium lacking FBS and hydrocortisone, with 50 ng/ml NGF or diluent alone (melanocyte medium). MM4 cells were maintained in DME supplemented with 50 ng/ml NGF or diluent alone.

[1] = target: human p75 nerve growth factor receptor (human) (UniProt P08138); test: cell-based or functional assay
[2] = target: p75^NTR over expressed on permanently transfected NIH 3T3 fibroblasts (p75^NTR NIH 3T3 cells); test: cell-based or functional assay
[3] = target: p75^NTR over expressed on permanently transfected NIH 3T3 fibroblasts (p75^NTR NIH 3T3 cells); test: competition with 125I beta-amyloid 1-40 on p75^NTR-NIH 3T3 cells, NGF 0-100 ng/ml, counting of lysates
[4] = target: the molecule itself; test: cross-linking of 3T3-p75 cells stimulated with βA, western blot with anti p75 antibodies
[5] = target: p75^NTR over expressed on permanently transfected NIH 3T3 fibroblasts (p75^NTR NIH 3T3 cells); test: competition with 125I beta-amyloid 1-40 on p75^NTR-NIH-3T3 cells in suspension, 4 hours, counting of lysates
[6] = pre-incubation with cyclic peptide

Molecule: 25-35: beta-amyloid fragment 25-35 (GSNKGAIIGLM; Amyloid-beta protein 42; UniProt P05067 696-706, looked up, fragment)
- Bax induction versus 40-1 control fragment or irrelevant protein (Bax; 25 uM, within 4 days): 3 fold
- Bax level as compared to the 40-1 peptide (Bax; 25 microM, four days): 160%

Molecule: CATDIKGAEC (also: cyclic, ring type not given here)
- c-jun transcription (human p75): decreased c-jun transcription
- p75 aggregation (human p75): inhibited p75 aggregation
- Cell yields, cyclic peptide and beta-amyloid versus beta-amyloid alone (p75^NTR-NIH 3T3 cells): significantly higher
- JNK activation in NGF stimulated cells (p75; [6]): abrogated JNK activation
- NGF-induced ceramide increase (p75; [6]): abrogated

Molecule: CCCAGCGTGCGCCATCCTT (DNA, all phosphorothioate, methylation of C not given here; listed as Homo sapiens) [BCL-2 antisense oligonucleotides]
- BCL-2 levels (Western blot) (BCL-2; 10 uM antisense, 48 hours after UV 10 mJ/cm^2): almost undetectable
- Cell yields, NGF plus BCL-2 antisense versus NGF plus nonsense (BCL-2; UV 10 mJ/cm^2, 10 uM oligonucleotide, NGF 50 ng/ml, 48 hours): significantly lower

Molecule: CKGAIC (also: cyclic, ring type not given here) [cyclic KGA-containing hexapeptide]
- Cell yields, cyclic peptide and beta-amyloid versus beta-amyloid alone (p75^NTR-NIH 3T3 cells): significantly higher

Molecule: GGCACCTGCCCCCATCGCC (DNA, all phosphorothioate, methylation of C not given here; listed as Homo sapiens) [antisense NGF-R, 19 mer antisense against the 5′ end of the human p75 NGF-R coding region]
- NGF effect on melanocyte survival (p75 NGF-R): NGF does not have an effect on melanocyte survival

Molecule: bFGF: basic fibroblast growth factor, a major mitogen for cells of melanocytic origin
- MM4 cell survival after UV irradiation (MM4 cells; UV 10 mJ/cm^2, 50 ng/ml bFGF): failed to improve MM4 cell survival
- Effect on sham irradiated MM4 cells (MM4 cells; sham irradiation, 50 ng/ml bFGF): mitogenic effect

Molecule: beta-amyloid 1-40 peptide (from UniProt P05067 1-40)
- melanocyte cell yield (% decrease in cell yield) [1]: 59
- cell yield (% reduction of cell yield) [2]: 60

Molecule: nerve growth factor (ligand)
- intracellular ceramide (fold increase) [1]: 2
- maximum inhibition of ^125I beta-amyloid binding [3]: 38 % inhibition

B1: human p75 nerve growth factor receptor (receptor, UniProt P08138 29-427, looked up)
chain: KEACPTGLYTHSGECCKACNLGEGVAQPCGANQTVCEPCLDSVTFSDVVSATEPCKPCTECVGLQSMSAPCVEADDAVCRCAYGYYQDETTGRCEACRVCEAGSGLVFSCQDKQNTVCEECPDGTYSDEANHVDPCLPCTVCEDTERQLRECTRWADAECEEIPGRWITRSTPPEGSDSTAPSTQEPEAPPEQDLIASTVAGVVTTVMGSSQPVVTRGTTDNLIPVYCSILAAVVVGLVAYIAFKRWNSCKQNKQGANSRPVNQTPPPEGEKLHSDSGISVDSQSLHDQQPHTQTASGQALKGDGGLYSSLPPAKREEVEKLLNGSAGDTWRHLAGELGYQPEHIDSFTHEACPVRALLASWATQDSATLDALLAALRRIQRADLVESLCSESTATSPV
notes: whole, on cells; also called p75 NGF-R; p75^NTR
- binding result [4]: binds

B2: NT-3: neurotrophin-3 (protein, UniProt P20783 139-257, looked up)
Neurotrophin-3: YAEHKSHRGEYSVCDSESLWVTDKSSAIDIRGHQVTVLGEIKTGNSPVKQYFYETRCKEARPVKNGCRGIDDKHWNSQCKTSQTYVRALTSENNKLVGWRWIRIDTSCVCALSRKIGRT
- UV-induced JNK activation (p75; NT-3 pre-treatment, within 30 minutes of UV): partially decreased
- Increase of intracellular ceramide (p75; within 3 hours): not by NT-3

Molecule: CVGSNKGAIC (not fully specified (bridges); also: cyclic peptide, ring type not given here) [cyclic peptide … (SEQ ID NO: 4)]
- IC50 [5]: 0.025 µM
